Active and inactive are the calls of the source.
Legend:
[1] = system: Escherichia coli; assay: Antibacterial activity against Escherichia coli NRRL B-3708 up to 60 uM after 16 to 48 hrs; type: functional, organism-based
[2] = system: Staphylococcus aureus; assay: Antibacterial activity against Staphylococcus aureus ATCC 6538 up to 60 uM after 16 to 48 hrs; type: functional, organism-based
[3] = system: A549; assay: Cytotoxicity against human A549 cells assessed as decrease in cell viability up to 10 uM after 48 hrs by resazurin assay; type: functional, cell-based
[4] = system: Micrococcus luteus; assay: Antibacterial activity against Micrococcus luteus NRRL B-287 up to 60 uM after 16 to 48 hrs; type: functional, organism-based
[5] = system: Salmonella enterica; assay: Antibacterial activity against Salmonella enterica ATCC 10708 up to 60 uM after 16 to 48 hrs; type: functional, organism-based
[6] = system: Saccharomyces cerevisiae; assay: Antifungal activity against Saccharomyces cerevisiae ATCC 204508 up to 60 uM after 16 to 48 hrs; type: functional, organism-based

Measured: Activity

C[C@@H]1C[C@@]23OC(=O)C4=C2O[C@]1(C)[C@@H](O)[C@@H]3[C@H]1O[C@H]1C(=O)[C@@](C)(O)C[C@H](C)C4=O
inactive: all assays above

C[C@@H]1C[C@H](C)/C(O)=C2/C(=O)O[C@]34C[C@@H](C)[C@]5(C)O[C@]23[C@@H](C[C@H]4[C@@H]5O)C1=O
inactive: all assays above

C[C@@H]1C[C@H](C)/C(O)=C2/C(=O)O[C@]34C[C@@](C)(O)[C@]5(C)O[C@]23[C@@H](C[C@@]42O[C@H]25)C1=O
inactive: all assays above

C[C@H]1C[C@](C)(O)C(=O)[C@@H]2[C@@H](O)[C@H]3[C@H](O)[C@@]4(C)O[C@@]25/C(=C\1O)C(=O)O[C@@]35C[C@@]4(C)O
inactive: all assays above

C[C@H]1C[C@](C)(O)C(=O)[C@@H]2[C@@H](O)[C@H]3[C@H](O)[C@@]4(C)O[C@@]25/C(=C\1O)C(=O)O[C@@]35C[C@H]4CO
inactive: all assays above

C[C@@H]1C[C@]23OC(=O)/C4=C(\O)[C@@H](C)C[C@](C)(O)C(=O)[C@@H]5[C@@H](O)[C@H]2[C@H](O)[C@@]1(C)O[C@@]453
inactive: all assays above

C[C@@H]1C[C@H](C)C(=O)C2=C3O[C@@]4(C)[C@H](CO)C[C@]3(OC2=O)[C@@H](CCC1=O)[C@@H]4O
inactive: all assays above

CC(=O)C[C@H](C)C(=O)C1=C(O)[C@@]2(C[C@@H](C)C(C)=C[C@H]2/C=C/C(=O)O)OC1=O
inactive: all assays above

C[C@H]1C[C@](C)(O)C(=O)C[C@@H]2/C(=C\1O)C(=O)O[C@]13C[C@H](C)[C@](C)(OC1=O)[C@@H](O)[C@H]23
inactive: all assays above

C[C@@H]1C[C@H](C)/C(O)=C2/C(=O)O[C@]34C[C@@H](CO)[C@]5(C)O[C@]23[C@@H](C[C@H]4[C@@H]5O)C1=O
inactive: all assays above

C[C@@H]1C[C@H](C)/C(O)=C2/C(=O)O[C@]34C[C@@](C)(O)[C@]5(C)O[C@]23[C@@H](C[C@H]4[C@@H]5O)C1=O
inactive: all assays above

CO[C@H]1[C@H]2[C@H](O)[C@@]3(C)O[C@@]45/C(=C(/O)[C@@H](C)C[C@](C)(O)C(=O)[C@H]14)C(=O)O[C@@]25C[C@H]3C
inactive: all assays above

Source: ChEMBL document CHEMBL4177550, “Bi- and Tetracyclic Spirotetronates from the Coal Mine Fire Isolate Streptomyces sp. LC-6-2” (J Nat Prod, 2017)
